In ChEMBL document CHEMBL4346660, “Cryptolepine and aromathecin based mimics as potent G-quadruplex-binding, DNA-cleavage and anticancer agents: Design, synthesis and DNA targeting-induced apoptosis” (Eur J Med Chem, 2019):
Calls of active or inactive are those of the source. No cut-off for these calls is given here.

What was measured:
[1] = system: MGC-803; test: Induction of apoptosis in human MGC803 cells assessed as increase in Bim levels at 0.5 to 2.5 uM after 24 hrs by Western blot analysis; format: functional, cell-based
[2] = system: MGC-803; test: Antitumor activity against human MGC803 cells xenografted in BALB/C mouse assessed as tumor growth inhibition at 12 mg/kg, ip administered every other day for 2 weeks measured during compound dosing relative to control; format: functional; settings: MGC-803, ip, 336 h
[3] = system: Calf thymus DNA; test: Inhibition of ethidium bromide binding to calf thymus DNA assessed as Stern-Volmer quenching constant by fluorescence spectra analysis; format: nucleic-acid assay; settings: Bos taurus
[4] = system: MGC-803; test: Induction of apoptosis in human MGC803 cells assessed as formation of apoptotic bodies at 2.5 uM after 24 hrs by Hoechst 33258 staining-based fluorescence microscopic method; format: functional, cell-based
[5] = system: MGC-803; test: Cell cycle arrest in human MGC803 cells assessed as accumulation of cells at G2/M phase at 2.5 uM incubated for 48 hrs by propidium iodide staining-based flow cytometry (reference value: 13.07%); format: functional
[6] = system: MGC-803; test: Antiproliferative activity against human MGC803 cells assessed as inhibition of cell proliferation at 10 uM measured for 12 to 72 hrs by MTT assay relative to control; format: functional
[7] = molecular target: T1, DNA topoisomerase I (Bos taurus) (UniProt F1MN93); test: Inhibition of calf thymus topoisomerase1-mediated relaxation of supercoiled pBR322 DNA at 5 uM measured after 30 mins by ethidium bromide staining based agarose gel electrophoresis
T1 sequence (whole entry): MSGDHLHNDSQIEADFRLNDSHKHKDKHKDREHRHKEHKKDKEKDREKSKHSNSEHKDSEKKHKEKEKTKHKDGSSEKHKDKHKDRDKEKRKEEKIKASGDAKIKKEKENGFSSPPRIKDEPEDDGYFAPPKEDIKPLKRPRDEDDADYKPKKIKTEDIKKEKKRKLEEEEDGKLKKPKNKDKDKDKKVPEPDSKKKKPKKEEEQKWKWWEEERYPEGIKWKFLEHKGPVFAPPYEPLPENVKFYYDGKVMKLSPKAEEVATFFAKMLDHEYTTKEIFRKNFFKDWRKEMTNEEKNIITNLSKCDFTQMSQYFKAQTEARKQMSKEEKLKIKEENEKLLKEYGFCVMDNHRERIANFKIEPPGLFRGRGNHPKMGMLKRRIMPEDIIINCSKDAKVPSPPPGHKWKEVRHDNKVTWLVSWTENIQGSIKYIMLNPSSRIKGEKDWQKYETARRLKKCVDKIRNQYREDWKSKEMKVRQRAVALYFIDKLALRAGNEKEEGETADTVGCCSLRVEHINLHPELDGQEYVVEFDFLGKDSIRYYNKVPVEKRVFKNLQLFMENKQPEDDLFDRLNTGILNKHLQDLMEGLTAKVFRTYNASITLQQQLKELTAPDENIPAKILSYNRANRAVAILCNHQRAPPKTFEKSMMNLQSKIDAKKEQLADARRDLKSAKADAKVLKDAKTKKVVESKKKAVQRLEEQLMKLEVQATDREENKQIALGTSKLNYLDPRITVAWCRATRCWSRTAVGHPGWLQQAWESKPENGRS

[8] = system: MGC-803; test: Induction of apoptosis in human MGC803 cells assessed as increase in intracellular calcium release incubated for 24 hrs by […] AM dye-based flow cytometric analysis; format: functional, cell-based
[9] = system: HepG2; test: Antiproliferative activity against human HepG2 cells assessed as reduction in cell viability incubated for 48 hrs by MTT assay; format: functional, cell-based; settings: HepG2, 48 h
[10] = system: MGC-803; test: Induction of apoptosis in human MGC803 cells assessed as early apoptotic cells at 2.5 uM incubated for 24 hrs by Annexin V-FITC/propidium iodide staining based flow cytometry (reference value: 0.97 +/- 0.10 %); format: functional
[11] = system: Quadruplex DNA; test: Binding affinity to human c-Kit-1 G-quadruplex DNA at 10 uM incubated for 5 mins by CD spectroscopy; format: nucleic-acid assay
[12] = system: MGC-803; test: Induction of apoptosis in human MGC803 cells assessed as increase in Bax levels at 0.5 to 2.5 uM after 24 hrs by Western blot analysis; format: functional, cell-based
[13] = system: MGC-803; test: Induction of apoptosis in human MGC803 cells assessed as increase in Bak levels at 0.5 to 2.5 uM after 24 hrs by Western blot analysis; format: functional, cell-based
[14] = system: MGC-803; test: Cell cycle arrest in human MGC803 cells assessed as accumulation of cells at G1 phase at 0.5 uM incubated for 48 hrs by propidium iodide staining-based flow cytometry (reference value: 53.96%); format: functional
[15] = system: Quadruplex DNA; test: Binding affinity to human Pu27 G-quadruplex DNA assessed as Stern-Volmer quenching constant by fluorometric titration assay; format: nucleic-acid assay
[16] = system: MGC-803; test: Cell cycle arrest in human MGC803 cells assessed as accumulation of cells at G1 phase at 2.5 uM incubated for 48 hrs by propidium iodide staining-based flow cytometry (reference value: 53.96%); format: functional
[17] = system: MGC-803; test: Induction of apoptosis in human MGC803 cells assessed as nuclear condensation at 2.5 uM after 24 hrs by Hoechst 33258 staining-based fluorescence microscopic method; format: functional, cell-based
[18] = system: MGC-803; test: Cell cycle arrest in human MGC803 cells assessed as increase in p21 expression at 0.5 to 2.5 uM incubated for 24 hrs by Western blot analysis; format: functional, cell-based
[19] = system: MGC-803; test: Induction of apoptosis in human MGC803 cells assessed as necrotic cells at 2.5 uM incubated for 24 hrs by Annexin V-FITC/propidium iodide staining based flow cytometry (reference value: 1.81 +/- 0.09 %); format: functional
[20] = system: MGC-803; test: Cell cycle arrest in human MGC803 cells assessed as increase in p27 expression at 0.5 to 2.5 uM incubated for 24 hrs by Western blot analysis; format: functional, cell-based
[21] = system: NCI-H460; test: Antiproliferative activity against human NCI-H460 cells assessed as reduction in cell viability incubated for 48 hrs by MTT assay; format: functional, cell-based; settings: NCI-H460, 48 h
[22] = system: MGC-803; test: Induction of apoptosis in human MGC803 cells assessed as decrease in Bcl-xL expression at 0.5 to 2.5 uM after 24 hrs by Western blot analysis; format: functional, cell-based
[23] = system: MGC-803; test: Induction of apoptosis in human MGC803 cells assessed as decrease in Bcl-2 expression at 0.5 to 2.5 uM after 24 hrs by Western blot analysis; format: functional, cell-based
[24] = system: MGC-803; test: Induction of apoptosis in human MGC803 cells assessed as late apoptotic cells at 2.5 uM incubated for 24 hrs by Annexin V-FITC/propidium iodide staining based flow cytometry (reference value: 0.69 +/- 0.05 %); format: functional
[25] = system: MGC-803; test: Cell cycle arrest in human MGC803 cells assessed as accumulation of cells at G1 phase at 1 uM incubated for 48 hrs by propidium iodide staining-based flow cytometry (reference value: 53.96%); format: functional
[26] = system: MGC-803; test: Induction of apoptosis in human MGC803 cells assessed as late apoptotic cells at 0.5 uM incubated for 24 hrs by Annexin V-FITC/propidium iodide staining based flow cytometry (reference value: 0.69 +/- 0.05 %); format: functional
[27] = system: Quadruplex DNA; test: Binding affinity to human c-Kit-1 G-quadruplex DNA assessed as Stern-Volmer quenching constant by fluorometric titration assay; format: nucleic-acid assay
[28] = system: MGC-803; test: Cell cycle arrest in human MGC803 cells assessed as accumulation of cells at S phase at 1 uM incubated for 48 hrs by propidium iodide staining based flow cytometry (reference value: 32.97%); format: functional

Structure (SMILES): CN(C)CCCNc1c2c(nc3ccc(F)cc13)-c1ccccc1C2
- Activity [1]: Active
- inhibition in vivo at 12 mg/kg [2]: 53.2%
- Kq [3]: 5.92 ×10⁴ No_unit
- Activity [4]: Active
- Activity [5]: 31.82%
- inhibition at 10 µM [6]: 40 to 95%
- inhibition [7]: Active
- Activity [8]: Dose-dependent effect
- IC50 [9]: 1770 nM
- Activity [10]: 51.2%
- Activity [11]: Active
- Activity [12]: Active
- Activity [13]: Active
- Activity [14]: 51.5%
- Kq [15]: 1.5 ×10⁷ No_unit
- Activity [16]: 8.74%
- Activity [17]: Active
- Activity [18]: Active
- Activity [19]: 4.01%
- Activity [20]: Active
- IC50 [21]: 1960 nM
- Activity [22]: Active
- Activity [23]: Active
- Activity [24]: 7.45%
- Activity [25]: 24.11%
- Activity [26]: 4.15%
- Kq [27]: 6.26 ×10⁶ No_unit
- Activity [28]: 52.87%
